According to ChEMBL document CHEMBL5385978, “Discovery of novel SOS1 inhibitors using machine learning” (RSC Med Chem, 2024):

System: SOS1-KRAS (Homo sapiens), Q07889+P01116 [G12C]
Experiment: Inhibition of his tagged SOS1/GST-tagged KRAS G12C mutant (unknown origin) protein-protein interaction at 25 ug/ml incubated for 2 hrs by HTRF assay relative to control
Type: protein-complex assay
Settings: dose 25.0 µg/ml

| inhibition [%] | SMILES |
| --- | --- |
| 6.3 | CC(C)OCCCNC1CCN(c2ncc(NC(=O)c3ccccc3)cc2C(=O)O)CC1 |
| 2.1 | CC(C)CCN1CCCN(c2nc(Cc3ccccc3)nc3c2ncn3-c2ccccc2)CC1 |
